We go through 2 compounds from BigSolDB 2.1.

As a reminder, the solubility (mole fraction) is solubility expressed as the solute's share of all molecules. Turning to `c1ccc2cc3ccccc3cc2c1`, the solubility (mole fraction) runs as follows: (in 2-butanone, 298 K) 0.00477; (in 2-butanone, 303 K) 0.00591; (in 2-butanone, 308 K) 0.00712; (in 2-butanone, 313 K) 0.0085; (in 2-butanone, 318 K) 0.0134; (in acetonitrile, 298 K) 0.00066. In addition, the solubility (mole fraction) by setting is: (in acetonitrile, 303 K) 0.00093; (in acetonitrile, 308 K) 0.00135; (in acetonitrile, 313 K) 0.00196; (in acetonitrile, 318 K) 0.0027; (in isopropanol, 298 K) 0.00034; (in isopropanol, 303 K) 0.00044. For the same compound, the solubility (mole fraction) is 0.00061 (in isopropanol, 308 K); 0.00081 (in isopropanol, 313 K); 0.00111 (in isopropanol, 318 K).
Take `O=C1c2ccccc2C(=O)c2ccccc21`: the solubility (mole fraction) worked out at 0.00054 (in 2-butanone, 298 K); 0.00062 (in 2-butanone, 303 K); 0.00075 (in 2-butanone, 308 K); 0.00087 (in 2-butanone, 313 K); 0.001 (in 2-butanone, 318 K); 0.00022 (in acetonitrile, 298 K). Also, the solubility (mole fraction) (in acetonitrile, 303 K) worked out at 0.00026; the solubility (mole fraction) (in acetonitrile, 308 K) turned out to be 0.00032; the solubility (mole fraction) (in acetonitrile, 313 K) turned out to be 0.00039; the solubility (mole fraction) (in acetonitrile, 318 K) came out at 0.00048; the solubility (mole fraction) (in isopropanol, 298 K) was 8e-05; the solubility (mole fraction) (in isopropanol, 303 K) is 0.0001. The solubility (mole fraction) reads like this: (in isopropanol, 308 K) 0.00012; (in isopropanol, 313 K) 0.00015; (in isopropanol, 318 K) 0.00018.
